Data published in PMC13249423, “Capsaicin acts as a novel NRF2 agonist to suppress ethanol induced gastric mucosa oxidative damage by directly disrupting the KEAP1-NRF2 interaction” (eLife, 2026).
pKd: −log10 of the molar value.

Key:
[1] = molecular target: T1, KEAP1 (mutant Kelch domain) (Homo sapiens, UniProt Q14145, N382A/N414A/R380A/R415A/S602A/Y334A/Y572A); test: BLI with purified biotinylated mutant Kelch; assay type: binding
T1 construct: Kelch domain of KEAP1 (Lys312-Cys624)

KEAP1 (Kelch domain, WT) = molecular target: T2, KEAP1 (Kelch domain, WT) (Homo sapiens, UniProt Q14145); test: BLI with purified biotinylated Kelch (also HDX-MS, CETSA in GES-1 cells, pull-down and SPR disruption of KEAP1-NRF2); assay type: binding
T2 construct: Kelch domain of KEAP1 (Lys312-Cys624)
T2 sequence (Q14145 312-624): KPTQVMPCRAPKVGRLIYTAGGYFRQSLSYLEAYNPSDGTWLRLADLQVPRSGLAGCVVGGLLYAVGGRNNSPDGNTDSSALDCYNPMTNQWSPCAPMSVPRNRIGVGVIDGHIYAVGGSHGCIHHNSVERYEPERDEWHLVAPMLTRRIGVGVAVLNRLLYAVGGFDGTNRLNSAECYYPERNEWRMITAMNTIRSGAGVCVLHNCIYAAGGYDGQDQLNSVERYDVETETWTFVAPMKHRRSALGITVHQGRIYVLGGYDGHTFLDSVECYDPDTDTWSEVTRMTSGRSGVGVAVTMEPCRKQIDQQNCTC

T1 sequence (Q14145 312-624 Y334A/R380A/N382A/N414A/R415A/Y572A/S602A): as the sequence (Q14145 312-624) above, with Y23A, R69A, N71A, N103A, R104A, Y261A, S291A counted along it

Structure (SMILES): COc1cc(CNC(=O)CCCC/C=C/C(C)C)ccc1O [CAP, capsaicin]
- pKd [1]: 3.99
- pKd (KEAP1 (Kelch domain, WT)): 4.50
